Laboratory results published in ChEMBL document CHEMBL1137573, “Cyclooxygenase-2 inhibitors. 1,5-diarylpyrrol-3-acetic esters with enhanced inhibitory activity toward cyclooxygenase-2 and improved cyclooxygenase-2/cyclooxygenase-1 selectivity” (J Med Chem, 2007).

Legend:
[1] = target: T1, Prostaglandin G/H synthase 1 (Mus musculus, UniProt P22437); test: Inhibition of COX1 in mouse J774 cells assessed as arachidonic acid-induced PGE2 levels by radio immunoassay; type: cell-based
T1 sequence (P22437 whole entry): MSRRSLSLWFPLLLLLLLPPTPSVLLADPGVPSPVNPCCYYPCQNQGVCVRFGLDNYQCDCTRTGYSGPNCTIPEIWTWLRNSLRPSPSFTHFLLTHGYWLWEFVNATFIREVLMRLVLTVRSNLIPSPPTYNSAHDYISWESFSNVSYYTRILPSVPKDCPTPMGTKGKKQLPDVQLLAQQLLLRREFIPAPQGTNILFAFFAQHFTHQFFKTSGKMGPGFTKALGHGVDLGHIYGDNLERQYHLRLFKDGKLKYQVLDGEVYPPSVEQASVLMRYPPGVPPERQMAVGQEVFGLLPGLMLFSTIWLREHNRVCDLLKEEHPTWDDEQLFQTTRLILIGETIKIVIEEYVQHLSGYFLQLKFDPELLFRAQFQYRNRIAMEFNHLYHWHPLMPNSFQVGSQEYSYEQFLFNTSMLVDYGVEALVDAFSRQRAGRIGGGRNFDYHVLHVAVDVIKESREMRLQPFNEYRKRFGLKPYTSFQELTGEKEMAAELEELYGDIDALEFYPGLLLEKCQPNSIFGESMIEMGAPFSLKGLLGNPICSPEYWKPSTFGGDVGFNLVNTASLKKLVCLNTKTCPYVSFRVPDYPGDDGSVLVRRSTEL

[2] = species on record: Mus musculus; test: Selectivity ratio of IC50 for mouse COX1 to IC50 for mouse COX2
[3] = target: T2, Prostaglandin G/H synthase 2 (Mus musculus, UniProt Q05769)
T2 sequence (Q05769 whole entry): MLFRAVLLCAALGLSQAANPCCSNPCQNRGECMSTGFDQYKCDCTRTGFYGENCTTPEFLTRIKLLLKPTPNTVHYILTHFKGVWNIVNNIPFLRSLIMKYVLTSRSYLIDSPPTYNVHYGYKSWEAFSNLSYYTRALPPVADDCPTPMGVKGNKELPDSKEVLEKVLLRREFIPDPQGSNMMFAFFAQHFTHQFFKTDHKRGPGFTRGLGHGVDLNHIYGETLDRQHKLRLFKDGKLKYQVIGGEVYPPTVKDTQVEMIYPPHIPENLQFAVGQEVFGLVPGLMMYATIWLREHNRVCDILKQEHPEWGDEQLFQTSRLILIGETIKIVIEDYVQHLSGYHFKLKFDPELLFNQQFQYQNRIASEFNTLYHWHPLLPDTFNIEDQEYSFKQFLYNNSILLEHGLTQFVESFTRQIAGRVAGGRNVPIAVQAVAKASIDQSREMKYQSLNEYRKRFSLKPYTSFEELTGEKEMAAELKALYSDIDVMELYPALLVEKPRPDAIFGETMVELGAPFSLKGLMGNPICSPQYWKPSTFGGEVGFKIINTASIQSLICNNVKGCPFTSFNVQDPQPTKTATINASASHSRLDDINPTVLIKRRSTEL
Description: Inhibition of COX2 in LPS-stimulated J774 cells assessed as inhibition of PGE2 levels by radioimmunoassay

[4] = target: T3, Prostaglandin G/H synthase 2 (Homo sapiens, UniProt P35354); test: Inhibition of COX2 in LPS-induced monocyte assessed as PGE2 production in human whole blood
T3 sequence (P35354 whole entry): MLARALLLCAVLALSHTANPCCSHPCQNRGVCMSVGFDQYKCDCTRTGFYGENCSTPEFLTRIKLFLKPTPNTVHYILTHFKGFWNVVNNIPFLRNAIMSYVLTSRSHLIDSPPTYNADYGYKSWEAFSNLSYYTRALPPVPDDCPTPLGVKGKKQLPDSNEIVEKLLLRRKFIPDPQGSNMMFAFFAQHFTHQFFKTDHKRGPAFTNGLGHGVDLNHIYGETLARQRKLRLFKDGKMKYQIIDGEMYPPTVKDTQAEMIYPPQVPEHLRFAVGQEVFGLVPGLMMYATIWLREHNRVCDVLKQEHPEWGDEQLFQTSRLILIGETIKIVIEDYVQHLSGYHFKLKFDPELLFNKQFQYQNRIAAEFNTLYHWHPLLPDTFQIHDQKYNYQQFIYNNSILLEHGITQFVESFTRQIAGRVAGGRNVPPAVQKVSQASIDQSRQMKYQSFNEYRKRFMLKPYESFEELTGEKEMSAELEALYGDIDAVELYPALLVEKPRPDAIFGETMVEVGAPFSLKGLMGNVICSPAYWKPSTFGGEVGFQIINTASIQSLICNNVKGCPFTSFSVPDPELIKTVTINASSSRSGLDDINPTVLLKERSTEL

[5] = target: Prostaglandin G/H synthase 1 (Homo sapiens, UniProt P23219); test: Inhibition of COX1 in human whole blood assessed as TXB2 production; type: tissue-based
Sequence of Prostaglandin G/H synthase 1 (Homo sapiens, UniProt P23219) (P23219 whole entry): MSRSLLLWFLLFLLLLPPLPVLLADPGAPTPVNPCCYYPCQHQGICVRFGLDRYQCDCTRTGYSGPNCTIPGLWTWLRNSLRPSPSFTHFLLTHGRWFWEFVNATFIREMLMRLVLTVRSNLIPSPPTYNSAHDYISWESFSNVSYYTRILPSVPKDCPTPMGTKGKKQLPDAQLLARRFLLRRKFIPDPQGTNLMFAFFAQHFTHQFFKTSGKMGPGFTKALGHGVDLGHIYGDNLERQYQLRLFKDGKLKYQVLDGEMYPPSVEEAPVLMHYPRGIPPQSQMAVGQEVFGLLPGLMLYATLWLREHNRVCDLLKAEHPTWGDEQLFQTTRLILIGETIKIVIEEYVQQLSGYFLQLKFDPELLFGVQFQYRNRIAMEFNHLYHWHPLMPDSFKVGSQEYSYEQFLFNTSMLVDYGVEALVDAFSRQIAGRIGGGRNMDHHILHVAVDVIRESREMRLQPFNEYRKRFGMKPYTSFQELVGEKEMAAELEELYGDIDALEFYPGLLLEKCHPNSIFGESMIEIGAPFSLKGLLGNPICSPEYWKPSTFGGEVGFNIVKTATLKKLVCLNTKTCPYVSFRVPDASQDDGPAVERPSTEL

[6] = tested on: Rattus norvegicus; test: Antiinflammatory activity against carrageenan-induced hyperalgesia in rat assessed as paw pressure in rat at 20 mg/kg, po after 30 mins; type: functional
[7] = tested on: Rattus norvegicus; test: Antiinflammatory activity against carrageenan-induced hyperalgesia in rat assessed as paw pressure in rat at 20 mg/kg, po after 60 mins; type: functional
[8] = tested on: Rattus norvegicus; test: Antiinflammatory activity against carrageenan-induced hyperalgesia in rat assessed as paw pressure in rat at 20 mg/kg, po after 120 mins; type: functional
[9] = tested on: Rattus norvegicus; test: Antiinflammatory activity against carrageenan-induced paw edema in rat at 20 mg/kg, po; type: functional
[10] = tested on: Mus musculus; test: Analgesic activity against acetic acid induced abdominal constriction in Swiss Albino mouse assessed as number of writhings at 10 mg/kg, po after 10 mins; type: functional, Abdomen
[11] = tested on: Mus musculus; test: Analgesic activity against acetic acid induced abdominal constriction in Swiss Albino mouse assessed as number of writhings at 20 mg/kg, po after 10 mins; type: functional, Abdomen

Compound	IC50 [1]	Ratio IC50 [2]	IC50 [3]	further results
CCOC(=O)C(=O)c1cc(-c2ccc(C(F)(F)F)cc2)n(-c2ccc(S(C)(=O)=O)cc2)c1C	> 100 µM	–	–	–
CCOC(=O)Cc1cc(-c2ccc(C)cc2)n(-c2ccc(S(C)(=O)=O)cc2)c1C	> 100 µM	> 50	1.96 µM	–
CCOC(=O)C(=O)c1cc(-c2ccc(S(C)(=O)=O)cc2)n(-c2ccc(F)cc2)c1C	> 100 µM	> 9	11 µM	–
CCOC(=O)C(=O)c1cc(-c2ccc(S(C)(=O)=O)cc2)n(-c2ccc(F)c(F)c2)c1C	> 100 µM	> 12	8.4 µM	–
CCOC(=O)C(=O)c1cc(-c2ccc(F)cc2)n(-c2ccc(S(C)(=O)=O)cc2)c1C	> 100 µM	–	–	–
CCOC(=O)C(=O)c1cc(-c2ccc(S(C)(=O)=O)cc2)n(-c2ccc(OC)cc2)c1C	> 100 µM	> 100	0.94 µM	–
CCOC(=O)Cc1cc(-c2ccc(S(C)(=O)=O)cc2)n(-c2ccc(F)c(F)c2)c1C	> 100 µM	> 5000	–	–
CCOC(=O)Cc1cc(-c2ccc(S(C)(=O)=O)cc2)n(-c2cccc(F)c2)c1C	> 100 µM	> 10000	–	IC50 [4]: 2.1 µM; IC50 [5]: 20.4 µM; Activity [6]: 55.2 g; Activity [7]: 49.8 g; Activity [8]: 43.4 g; Activity [9]: 95.5%; Activity [10]: 28.9; Activity [11]: 15.7
CCOC(=O)Cc1cc(-c2ccc(OC)cc2)n(-c2ccc(S(C)(=O)=O)cc2)c1C	> 100 µM	> 200	0.55 µM	–
CCOC(=O)Cc1cc(-c2ccc(S(C)(=O)=O)cc2)n(-c2ccc(OC)cc2)c1C	> 100 µM	> 4000	0.026 µM	–

Continued, in another order:

IC50 [1]	Ratio IC50 [2]	IC50 [3]	Compound	further results
> 100 µM	> 19	5.4 µM	CCOC(=O)Cc1cc(-c2ccc(F)c(F)c2)n(-c2ccc(S(C)(=O)=O)cc2)c1C	–
> 100 µM	–	–	CCOC(=O)C(=O)c1cc(-c2ccccc2)n(-c2ccc(S(C)(=O)=O)cc2)c1C	–
> 100 µM	–	–	CCOC(=O)Cc1cc(-c2ccc(C(F)(F)F)cc2)n(-c2ccc(S(C)(=O)=O)cc2)c1C	–
> 100 µM	> 10000	0.01 µM	CCOC(=O)Cc1cc(-c2ccc(S(C)(=O)=O)cc2)n(-c2ccc(F)cc2)c1C	–
> 100 µM	> 100	0.9 µM	CCOC(=O)C(=O)c1cc(-c2ccc(S(C)(=O)=O)cc2)n(-c2cccc(F)c2)c1C	–
> 100 µM	–	–	CCOC(=O)C(=O)c1cc(-c2ccc(C)cc2)n(-c2ccc(S(C)(=O)=O)cc2)c1C	–
> 100 µM	> 250	0.4 µM	CCOC(=O)Cc1cc(-c2ccc(F)cc2)n(-c2ccc(S(C)(=O)=O)cc2)c1C	–
> 100 µM	–	–	CCOC(=O)C(=O)c1cc(-c2ccc(OC)cc2)n(-c2ccc(S(C)(=O)=O)cc2)c1C	–
> 100 µM	–	–	CCOC(=O)Cc1cc(-c2ccccc2)n(-c2ccc(S(C)(=O)=O)cc2)c1C	–
> 100 µM	–	–	CCOC(=O)C(=O)c1cc(-c2ccc(F)c(F)c2)n(-c2ccc(S(C)(=O)=O)cc2)c1C	–
